What is called Tmax is the time from dosing to the highest level. The term Ki denotes a dissociation constant, usually derived from enzyme kinetics or from competition with a known ligand. Low values mean a stronger hold on the target, high ones a looser hold on the target.

The conditions of series [1]: patients, combined with paclitaxel and trastuzumab; ref Kim TY et al. [2019]; cited from earlier work.
Series [2] is classed as in vivo, Sprague–Dawley rats.
For series [3] the following is noted: dogs, oral dose of 0.3 mg/kg poziotinib; ref Kim et al. [2013]; cited from earlier work.
The next series has as its system HLM. Description: Inhibition of poziotinib metabolism. The format is in vitro ADME, human.
The target of a further series is recombinant human CYP3A4 (Homo sapiens, UniProt P08684). Nature of the series: Inhibition of poziotinib metabolism. Type of series: in vitro ADME. Conditions: CYP3A4, stated in abstract.
In the next series the target is recombinant human CYP2D6 (Homo sapiens, UniProt P10635). Description: Inhibition of poziotinib metabolism. Type of series: in vitro ADME. As to conditions: CYP2D6, stated in abstract.
For a further series, the system named is RLM. Nature of the series: Inhibition of poziotinib metabolism. The format is in vitro ADME, rat.
The conditions of series [4]: healthy volunteers, coadministered with paroxetine; ref Ruiz-Garcia et al. [2014]; cited from earlier work.
Setting [5] is: rat, preadministered with dacomitinib (10 mg/kg) for two weeks.

Chain of recombinant human CYP3A4 (P08684 whole entry): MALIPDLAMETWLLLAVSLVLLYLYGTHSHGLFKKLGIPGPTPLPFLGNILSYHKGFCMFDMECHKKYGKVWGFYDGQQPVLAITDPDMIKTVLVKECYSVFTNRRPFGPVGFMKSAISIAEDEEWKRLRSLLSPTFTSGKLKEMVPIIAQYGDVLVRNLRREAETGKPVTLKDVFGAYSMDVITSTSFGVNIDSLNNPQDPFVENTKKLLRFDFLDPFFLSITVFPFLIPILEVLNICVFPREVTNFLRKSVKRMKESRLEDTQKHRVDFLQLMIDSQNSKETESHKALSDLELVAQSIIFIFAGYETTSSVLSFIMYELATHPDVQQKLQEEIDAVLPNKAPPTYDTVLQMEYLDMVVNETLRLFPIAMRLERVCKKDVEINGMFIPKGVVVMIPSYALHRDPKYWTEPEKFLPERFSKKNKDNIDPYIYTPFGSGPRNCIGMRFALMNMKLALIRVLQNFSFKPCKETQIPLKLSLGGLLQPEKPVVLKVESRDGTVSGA
Chain of recombinant human CYP2D6 (P10635 whole entry): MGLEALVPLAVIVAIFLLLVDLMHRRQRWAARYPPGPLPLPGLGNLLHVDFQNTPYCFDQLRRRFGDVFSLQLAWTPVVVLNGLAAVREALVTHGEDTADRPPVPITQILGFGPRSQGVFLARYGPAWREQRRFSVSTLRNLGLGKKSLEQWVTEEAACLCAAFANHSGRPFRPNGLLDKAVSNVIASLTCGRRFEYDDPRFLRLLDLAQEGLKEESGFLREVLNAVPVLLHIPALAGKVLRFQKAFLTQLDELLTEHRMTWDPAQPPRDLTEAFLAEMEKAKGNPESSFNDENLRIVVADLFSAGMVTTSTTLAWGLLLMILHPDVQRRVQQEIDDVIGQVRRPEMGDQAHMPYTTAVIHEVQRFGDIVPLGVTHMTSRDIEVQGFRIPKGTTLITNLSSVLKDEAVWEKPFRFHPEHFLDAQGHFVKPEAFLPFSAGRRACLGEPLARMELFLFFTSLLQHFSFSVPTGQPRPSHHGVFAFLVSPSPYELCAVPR

With `C=CC(=O)N1CCC(Oc2cc3c(Nc4ccc(Cl)c(Cl)c4F)ncnc3cc2OC)CC1` [poziotinib, Poziotinib], the “maximum tolerated dose (MTD)” value in series [1] is reported as 8 mg/day. Further, the “delay of Tmax of poziotinib after pre-treatment with dacomitinib” value in series [2] (rat) was about 3 h. In addition, in series [2] (rat, dacomitinib pre-treatment two weeks, p < 0.01), the “increase of AUC(0–t) of poziotinib, test group vs control group” value was determined as 1.6 fold. Also, in series [2] (setting [5]), the “increase of Tmax of poziotinib, test group vs control group” value amounted to 1.3 fold and the “increase of t1/2 of poziotinib, test group vs control group” value is 1.6 fold. In series [2] (rats, poziotinib 10 mg/kg oral with or without dacomitinib), the adverse effects observed entry was “No obvious adverse effects were observed”. Moreover, in series [3], the Tmax was 0.40 to 1.00 h and the t1/2 is 3.40 to 5.40 h.

Regarding `COc1cc2ncnc(Nc3ccc(F)c(Cl)c3)c2cc1NC(=O)/C=C/CN1CCCCC1` [dacomitinib, Dacomitinib], the “mechanism of inhibition of poziotinib metabolism” value in the series on HLM was “mixed inhibitor”; at recombinant human CYP3A4 it was “mixed way”; at recombinant human CYP2D6, “mixed way”; in the series on RLM, “mixed inhibitor”. Further, the Ki came out at 83.7 µM at HLM (M1), 0.17 µM on HLM (M2), 8.18 µM at RLM (M1) and 47.5 µM at RLM (M2). Also, the results for the αKi at HLM (M1), on RLM (M1) and at RLM (M2) were 93.73 µM, 38.81 µM and 38.07 µM, respectively. The Inhibition type result in the series with HLM (M1, Lineweaver–Burk plot) is reported as “Mixed”; in the series on HLM (M2, Lineweaver–Burk plot), “Mixed”; in the series on RLM (M1, Lineweaver–Burk plot) it was “Mixed”; in the series with RLM (M2, Lineweaver–Burk plot), “Mixed”. Moreover, the “increase of dacomitinib exposure” value in series [4] is 37%.
